Experimental data published in patent publication US5294609A, “DNA gyrase inhibitors and pharmaceutical preparations therefor” (Hoffmann-LaRoche Inc., priority 1991, dated 1994).
≈ marks a conversion by molar mass, not a printed value.

Experiments:
DNA gyrase = target: T1, DNA gyrase (Escherichia coli, UniProt P0AES6); test: Inhibition of DNA gyrase activity (DNA gyrase supercoiling assay); assay type: biochemical, E. coli H560; conditions: relaxed PUC18 substrate
T1 construct: supercoiling of relaxed pUC18 plasmid
Protocol: The inhibition of DNA gyrase activity was measured using a DNA gyrase supercoiling assay according to R. Otter & N. Cozzarelli:Methods in Enzymology, Vol. 100, pp 171-180 (1983). DNA gyrase was isolated from E. coli H560, and relaxed PUC18 plasmed was used as substrate. The activities as regards inhibition of DNA gyrase activity, expressed as maximum non-effective concentration of the test compound (MNC in μg/ml) are compiled in the following Table 4: […]

B. catarrhalis RA 117 = test: Antibacterial activity in vitro (MIC, agar dilution); assay type: cell-based; conditions: Moraxella catarrhalis, RA117, agar dilution (BB2 + 1% Isovitalex + 7.5% sheep blood + metadione), inoculum 10^4 CFU/spot, read-out: minimum inhibitory concentration (MIC)
From the text: (§1) In the following table there are complied the minimum inhibitory concentrations (MIC; μg/ml) of some representative compounds of formula I against a series of pathogenic microorganisms.
(§2) Agar dilution (BB2 + 1% Isovitalex + 7.5% sheep blood + metadione),
(§3) Inoculum: 10^4 CFU/spot;

S. faecalis 6 = test: as above; assay type: cell-based; conditions: Enterococcus faecalis, agar dilution (BB2 + 1% Isovitalex + 7.5% sheep blood + metadione), inoculum 10^4 CFU/spot, read-out: minimum inhibitory concentration (MIC)
From the text: as §1, §2, §3

S. aureus 25923 = test: as above; assay type: cell-based; conditions: Staphylococcus aureus, agar dilution (BB2 + 1% Isovitalex + 7.5% sheep blood + metadione), inoculum 10^4 CFU/spot, read-out: minimum inhibitory concentration (MIC)
From the text: as §1, §2, §3

E. coli B = test: as above; assay type: cell-based; conditions: Escherichia coli, agar dilution (BB2 + 1% Isovitalex + 7.5% sheep blood + metadione), inoculum 10^4 CFU/spot, read-out: minimum inhibitory concentration (MIC)
From the text: as §1, §2, §3

S. aureus 887 = test: as above; assay type: cell-based; conditions: Staphylococcus aureus, agar dilution (BB2 + 1% Isovitalex + 7.5% sheep blood + metadione), inoculum 10^4 CFU/spot, read-out: minimum inhibitory concentration (MIC)
From the text: as §1, §2, §3

S. pyogenes 15 = test: as above; assay type: cell-based; conditions: Streptococcus pyogenes, agar dilution (BB2 + 1% Isovitalex + 7.5% sheep blood + metadione), inoculum 10^4 CFU/spot, read-out: minimum inhibitory concentration (MIC)
From the text: as §1, §2, §3

N. meningitidis 69480 = test: as above; assay type: cell-based; conditions: Neisseria meningitidis, agar dilution (BB2 + 1% Isovitalex + 7.5% sheep blood + metadione), inoculum 10^4 CFU/spot, read-out: minimum inhibitory concentration (MIC)
S. filipinensis IFO12860 = test: Streptomycin sensitivity of S. filipinensis IFO12860; assay type: cell-based; conditions: Streptomyces filipinensis, IFO12860, read-out: Streptomycin sensitivity (M.I.C.)
Protocol: (§4) The taxonomic studies were done according to the procedure adopted by the International Streptomyces Project (ISP) using the media recommended by Shining, E. B. and D. Gottlieb (Method for characterization of Streptomyces species; Intern. J. Syst. Bact. 16:313-340, 1966) and by Waksman, S. A. (Classification, identification and description of genera and species; in The Actinomycetes Vol. II; The Williams and Wilkins Co., Baltimore, 1961). All cultures were incubated at 27° C. for 15 days. The colour scheme in the Colour Harmony Manual (4th ed., 1958; Container Corporation of America, Chicago) was used to describe the pigmentation of the colonies. Sodium chloride tolerance of the strains and their growth at various temperatures were tested on ISP medium No. 3 (Difco) containing 0.15% yeast extract; and streptomycin sensitivity of the strains were tested on ISP medium No. Z (Difco).

strain NR0484 = test: Streptomycin sensitivity of strain NR0484; assay type: cell-based, Streptomyces sp. NR0484 (Streptomyces filipinensis); conditions: Streptomyces, ISP medium No. Z (Difco), read-out: Streptomycin sensitivity (M.I.C.)
Protocol: as §4

E. coli DC2 = test: Antibacterial activity in vitro (MIC, agar dilution); assay type: cell-based; conditions: Escherichia coli, agar dilution (BB2 + 1% Isovitalex + 7.5% sheep blood + metadione), inoculum 10^4 CFU/spot, read-out: minimum inhibitory concentration (MIC)
[1] = Physicochemical properties of compound Ia

COC(=O)[C@@H]1CSCc2c(O)cc(OC)c(C)c2C(=O)OC[C@H](O)C(=O)N1 [Example 41, methyl (4R,7S)-1,3,4,5,6,7,8,10-octahydro-7,14-dihydroxy-12-methoxy-11-methyl-6,10-dioxo-9,2,5-benzoxathiaazacyclododecine-4-carboxylate]
maximum non-effective concentration of the test compound (MNC) (DNA gyrase): 0.1 µg/mL
MIC (B. catarrhalis RA 117): 4 µg/mL
MIC (S. faecalis 6): 32 µg/mL
MIC (S. aureus 25923): 32 µg/mL
MIC (E. coli B): 128 µg/mL
MIC (S. aureus 887): 32 µg/mL
MIC (S. pyogenes 15): 16 µg/mL
MIC (N. meningitidis 69480): 8 µg/mL

[H]/N=C(/N)N[C@H]1[C@H](O)[C@@H](O)[C@H](O[C@@H]2O[C@@H](C)[C@](O)(C=O)[C@H]2O[C@@H]2O[C@@H](CO)[C@H](O)[C@@H](O)[C@@H]2NC)[C@@H](N/C(N)=N\[H])[C@@H]1O [Streptomycin]
MIC (S. filipinensis IFO12860): 6300 µg/mL (≈ 10.8 mM)
MIC (strain NR0484): 6300 µg/mL (≈ 10.8 mM)

COC(=O)[C@@H]1CSCc2c(OC(C)=O)cc(OC(C)=O)c(C)c2C(=O)OC[C@H](N)C(=O)N1 [Example 5, methyl (4R,7S)-12,14-diacetoxy-7-amino-1,3,4,5,6,7,8,10-octahydro-11-methyl-6,10-dioxo-9,2,5-benzoxathiaazacyclododecine-4-carboxylate]
maximum non-effective concentration of the test compound (MNC) (DNA gyrase): 10 µg/mL

CO/N=C(\C(=O)N[C@H]1COC(=O)c2c(C)c(OC(C)=O)cc(OC(C)=O)c2CSC[C@@H](C(=O)OC)NC1=O)c1csc(N)n1 [Example 10, methyl (4R,7S)-12,14-diacetoxy-7-[(Z)-2-(2-amino-4-thiazolyl) -2-(methoxyimino)acetamido]-1,3,4,5,6,7,8,10-octahydro-11-methyl-6,10-dioxo-9,2,5-benzoxathiaazacyclododecine-4-carboxylate]
maximum non-effective concentration of the test compound (MNC) (DNA gyrase): 10 µg/mL

CCOC(=O)[C@@H]1CSCc2c(O)cc(OC)c(C)c2C(=O)OC[C@H](NC=O)C(=O)N1 [Example 69, ethyl (4R,7S)-7-formamido-1,3,4,5,6,7,8,10-octahydro-14-hydroxy-12-methoxy-11-methyl-6,10-dioxo-9,2,5-benzoxathiaazacyclododecine-4-carboxylate]
maximum non-effective concentration of the test compound (MNC) (DNA gyrase): 0.05 µg/mL
MIC (B. catarrhalis RA 117): 4 µg/mL
MIC (S. faecalis 6): 16 µg/mL
MIC (S. aureus 25923): 128 µg/mL
MIC (E. coli B): 32 µg/mL
MIC (S. aureus 887): 32 µg/mL
MIC (S. pyogenes 15): 4 µg/mL
MIC (E. coli DC2): 16 µg/mL

Cc1c(O)cc(O)c2c1C(=O)OC[C@H](NC(=O)[C@@H]1[C@H](O)CCN1C(=O)[C@@H](N)CO)C(=O)N[C@H](C(=O)N[C@@H](C)C(=O)O)CSC2 [Example 12, N-[[(4R,7S)-1,3,4,5,6,7 8,10-octahydro-12,14-dihydroxy-7-[[(3R)-3-hydroxy-1-L-seryl-L-prolyl]amino]-11-methyl-6,10-dioxo-9,2,5-benzoxathiaazacyclododecin-4-yl]carbonyl]-L-alanine]
maximum non-effective concentration of the test compound (MNC) (DNA gyrase): 5 µg/mL
solubility (in words) [1]: water soluble

Cc1c(O)cc(O)c2c1C(=O)OC[C@H](NC(=O)OC(C)(C)C)C(=O)N[C@H](C(=O)O)CSC2 [Example 3, (4R,7S)-7-(L-t-butoxyformamido)-1,3,4,5,6,7,8,10-octahydro-12,14-dihydroxy-11-methyl-6,10-dioxo-9,2,5-benzoxathiaazacyclododecine-4-carboxylic acid]
maximum non-effective concentration of the test compound (MNC) (DNA gyrase): 5 µg/mL

C=CCNC(=O)[C@@H]1CSCc2c(O)cc(OC)c(C)c2C(=O)OC[C@H](NC(=O)OC(C)(C)C)C(=O)N1 [Example 84, (4R,7S)-7-tert-butoxycarbonylamino-1,3,4,5,6,7,8,10-octahydro-14-hydroxy-l2-methoxy-11-methyl-6,10-dioxo-9,2,5-benzoxathiaazacyclododecine-4-carboxylic acid allylamide]
maximum non-effective concentration of the test compound (MNC) (DNA gyrase): 0.1 µg/mL
MIC (B. catarrhalis RA 117): 4 µg/mL
MIC (S. faecalis 6): 32 µg/mL
MIC (S. aureus 25923): 32 µg/mL
MIC (E. coli B): > 128 µg/mL
MIC (S. aureus 887): 16 µg/mL
MIC (S. pyogenes 15): 16 µg/mL
MIC (N. meningitidis 69480): 4 µg/mL
MIC (E. coli DC2): > 128 µg/mL

COC(=O)[C@@H]1CSCc2c(O)cc(O)c(C)c2C(=O)OC[C@H](NC(=O)OC(C)(C)C)C(=O)N1 [Example 2, t-butyl (4R,7S)-1,3,4,5,6,7,8,10-octahydro-12,14-dihydroxy-4-methoxycarbonyl-11-methyl-6,10-dioxo-9,2,5-benzoxathiaazacyclododecine-7-carbamate]
maximum non-effective concentration of the test compound (MNC) (DNA gyrase): 0.1 µg/mL
maximum non-effective concentration of the test compound (MNC) (DNA gyrase; listed as 13): 0.05 µg/mL

COC(=O)N[C@H]1COC(=O)c2c(C)c(OC)cc(O)c2CSC[C@@H](C(=O)OC)NC1=O [Example 137, Methyl (4R,7S)-1,3,4,5,6,7,8,10-octahydro-14-hydroxy-12-methoxy-4-methoxycarbonyl-11-methyl-6,10-dioxo-9,2,5-benzoxathiaazacyclododecine-7-carbamate]
maximum non-effective concentration of the test compound (MNC) (DNA gyrase): 0.2 µg/mL
MIC (B. catarrhalis RA 117): 4 µg/mL
MIC (S. faecalis 6): 64 µg/mL
MIC (S. aureus 25923): 128 µg/mL
MIC (E. coli B): 64 µg/mL
MIC (S. aureus 887): 32 µg/mL
MIC (S. pyogenes 15): 8 µg/mL
MIC (N. meningitidis 69480): 8 µg/mL
MIC (E. coli DC2): 64 µg/mL

COC(=O)[C@@H]1CSCc2c(O)cc(OC)cc2C(=O)OCCC(=S)N1 [Example 101, methyl (4R)-1,3,4,5,6,7,8,10-octahydro-14-hydroxy-12-methoxy-10-oxo-6-thioxo-9,2,5-benzoxathiaazacyclododecine-4-carboxylate]
maximum non-effective concentration of the test compound (MNC) (DNA gyrase): 0.1 µg/mL
MIC (B. catarrhalis RA 117): 4 µg/mL
MIC (S. faecalis 6): 32 µg/mL
MIC (S. aureus 25923): 16 µg/mL
MIC (E. coli B): 64 µg/mL
MIC (S. aureus 887): 16 µg/mL
MIC (S. pyogenes 15): 16 µg/mL
MIC (N. meningitidis 69480): 8 µg/mL
MIC (E. coli DC2): 64 µg/mL

CCOC(=O)[C@@H]1CSCc2c(O)cc(OC)c(C)c2C(=O)OC[C@H](NC(C)=S)C(=O)N1 [Example 102, ethyl (4R,7S)-1,3,4,5,6,7,8,10-octahydro-14-hydroxy-12-methoxy-11-methyl-6,10-dioxo-7-thioacetamido-9,2,5-benzoxathiaazacyclododecine-4-carboxylate]
maximum non-effective concentration of the test compound (MNC) (DNA gyrase): 0.25 µg/mL
MIC (B. catarrhalis RA 117): 2 µg/mL
MIC (S. faecalis 6): 16 µg/mL
MIC (S. aureus 25923): 16 µg/mL
MIC (E. coli B): 64 µg/mL
MIC (S. aureus 887): 8 µg/mL
MIC (S. pyogenes 15): 8 µg/mL
MIC (N. meningitidis 69480): 2 µg/mL
MIC (E. coli DC2): 64 µg/mL

COC(=O)[C@@H]1CSCc2c(O)cc(O)c(C)c2C(=O)OC[C@H](N)C(=O)N1 [Example 6, methyl (4R,7S)-7-amino-1,3,4,5,6,7,8,10-octahydro-12,14-dihydro-11-methyl-6,10-dioxo-9,2,5-benzoxathiaazacyclododecine-4-carboxylate]
maximum non-effective concentration of the test compound (MNC) (DNA gyrase): 2 µg/mL

Cc1c(O)cc(O)c2c1C(=O)OC[C@H](N)C(=O)N[C@H](C(=O)O)CSC2 [Example 4, (4R,7S)-7-amino-1,3,4,5,6,7,8,10-octahydro-12,14-dihydro-11-methyl-6,10-dioxo-9,2,5-benzoxathiaazacyclododecine-4-carboxylic acid]
maximum non-effective concentration of the test compound (MNC) (DNA gyrase): 1 µg/mL

Cc1c(O)cc(O)c2c1C(=O)OC[C@H](N)C(=O)NCCSC2 [Example 9, (S)-7-amino-4,5,7,8-tetrahydro-12,14-dihydroxy-11-methyl-9,2,5-benzoxathiaazacyclododecine-6,10(1H,3H)-dione]
maximum non-effective concentration of the test compound (MNC) (DNA gyrase): 1 µg/mL
